Laboratory results from patent US20260176270A1 (Exelixis, Inc., priority 2022, published 2026).
pIC50: −log10 of the molar value. Read-outs that look alike come from different tables or passages of the source.

Legend:
[1] = test system: phosphorylation of CDK1 at Thr14 in HCC1806 cells; test: Cell lysate AlphaLISA assay measuring inhibition of phosphorylation of CDK1 Thr14; type: cell-based; details: read-out: Cellular IC50
Experimental: (§1) Biochemical IC50 values were determined via ADP-Glo™ assay. Cellular IC50 values were determined via AlphaLISA assay.
Cell lysate AlphaLISA® assay measuring inhibition of phosphorylation of CDK1 Thr14. Inhibition of phosphorylation of CDK1 at Thr14 was determined using AlphaLISA® SureFire® Ultra™ Kit from Perkin Elmer (ALSU-PCDK1-A10K). HCC1806 cells were seeded at 2K cells per well (50 μl/well) in 384-well plates (Corning 3570) and stored overnight at 37° C. and 5% CO2. The following day, the compounds dissolved in DMSO were introduced to the cells and incubated for 4 hours at 37° C. and 5% CO2. The cells were then washed with PBS using Blue®Washer and 10 μl of lysis buffer containing protease inhibitor was added. The plate was placed on an orbital shaker (at 4° C.) for 30 minutes and stored overnight at −80° C. for complete lysing. The next day, the plates were thawed at room temperature for at least 30 min. Reagents were prepared in a dimmed light setting (<100 lumens). The assay was run by first adding 5 μl of the acceptor mix (reaction buffer 1: reaction buffer 2: activation buffer: acceptor beads 47:47:4:2), covering the plate with foil, shaking for 2 minutes and incubating at RT for 60 minutes. The donor mix (dilution buffer: donor beads 47:3) was then added at 5 μl per well, placed on the shaker for 2 minutes and incubated at RT for 60 minutes before reading the plates on a PHERAstar® plate reader. The results were normalized to DMSO (0% Inhibition) and 3 μM of reference compound.

[2] = molecular target: T1, PKMYT1 (Homo sapiens, UniProt Q99640); test: ADP-Glo PKMYT1 ATP-depletion assay; details: 50 nM PKMYT1, 13.3 nM CDK1, read-out: Biochemical IC50
T1 construct: PKMYT1 (93 kD, full length, N-terminal GST tag from Signal Chem); GST (N); purchased Signal Chem
T1 sequence (Q99640 1-499): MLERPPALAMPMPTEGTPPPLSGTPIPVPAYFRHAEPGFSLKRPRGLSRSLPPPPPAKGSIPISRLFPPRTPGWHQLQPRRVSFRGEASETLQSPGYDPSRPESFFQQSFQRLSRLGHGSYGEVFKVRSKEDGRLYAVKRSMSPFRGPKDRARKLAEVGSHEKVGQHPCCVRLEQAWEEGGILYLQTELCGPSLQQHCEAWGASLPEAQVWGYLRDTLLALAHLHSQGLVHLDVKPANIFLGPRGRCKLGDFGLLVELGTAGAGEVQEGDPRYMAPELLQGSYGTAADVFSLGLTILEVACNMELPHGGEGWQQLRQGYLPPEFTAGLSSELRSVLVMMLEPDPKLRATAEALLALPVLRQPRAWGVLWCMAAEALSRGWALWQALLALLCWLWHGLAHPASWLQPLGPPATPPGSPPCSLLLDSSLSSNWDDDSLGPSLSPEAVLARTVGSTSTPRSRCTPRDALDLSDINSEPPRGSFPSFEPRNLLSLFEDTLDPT
Experimental: as §1
ADP-Glo™ PKMYT1 ATP-depletion assay. The activity of PKMYT1 is measured using a luciferase-luciferin based ATP detection reaction to quantify ATP depletion resulting from kinase-catalyzed phosphoryl transfer to CDK1 or autophosphorylation of PKMYT1. The ADP generated as a byproduct of the reaction is converted to ATP and used to drive a luciferase reaction. Test compounds were dissolved in DMSO and dispensed into Corning 3824 384-well plates prior to the experiment such that the final DMSO concentration was <1%. To the compounds was added 3 μL of PKMYT1 (93 kD, full length, N-terminal GST tag from Signal Chem). The reaction was started by the addition of 2 μL of CDK1 (58 kDa, full length, N-terminal GST tag from Signal Chem) and ATP in assay buffer (50 mM Hepes, 40 mM NaCl, 10 mM MgCl2, 1 mM DTT, 0.1 mg/mL BSA, 2.5 mM MnCl2). Final assay concentrations were 50 nM PKMYT1, 13.3 nM CDK1, and 88 µM ATP. Plates were centrifuged for 1 minute at 1000 RPM and incubated at RT for 120 minutes. After the incubation period, ADP-Glo™ reagent was added and the plates were incubated for another 40 minutes before finally adding the kinase detection reagent. 30 minutes after the addition, plates were placed on a PHERAstar® plate reader and read using the Luminescence Protocol, integration time at 0.5 seconds.

pIC50 ([1]; 4 hours)	pIC50 [2]	pIC50 ([1]; Homo sapiens, HCC1806, 4 h)	SMILES
6.30 to 7.30	6.30 to 7.30	–	COc1nc2cc(C(N)=O)c(N)c(-c3cccc(O)c3C)c2nc1C [Compound 172]
–	6.00 to 6.30	≤ 5.30	Cc1ccc(O)c(C)c1-c1cc(C(N)=O)cc2cccnc12 [Compound 60, 8-(3-Hydroxy-2,6-dimethyl-phenyl)quinoline-6-carboxamide]
≤ 5.30	≤ 5.30	–	Cc1c(Cl)cncc1C1=c2ncccc2=NC(C(N)=O)C1N (stereo not shown) [Compound 239]
–	≤ 5.30	≤ 5.30	NC(=O)c1nc2cccnc2c(-c2cccc3c2CC(=O)N3)c1N [Compound 293]
–	≤ 5.30	≤ 5.30	Cc1ccc(C#N)cc1-c1c(N)c(C(N)=O)nc2cccnc12 [Compound 254]
–	≤ 5.30	≤ 5.30	Cc1cnc2[nH]ncc2c1-c1c(N)c(C(N)=O)cc2nccnc12 [Compound 234]
–	> 7.30	6.30 to 7.30	Cc1ccc(O)c(C)c1-c1c(N)c(C(N)=O)cc2nccnc12 [Compound 82, 7-Amino-8-(3-hydroxy-2,6-dimethylphenyl)quinoxaline-6-carboxamide]
–	≤ 5.30	≤ 5.30	COc1ccc2nc(C(N)=O)c(N)c(-c3cc(O)ncc3C)c2n1 [Compound 315]
≤ 5.30	≤ 5.30	–	Cc1ccc(O)c(C)c1-c1c(N)c(C(N)=O)nc2c(C(F)(F)F)cccc12 (single isomer, unassigned) [Compound 31, (P)-3-amino-4-(3-hydroxy-2,6-dimethylphenyl)-8-(trifluoromethyl) quinoline-2-carboxamide]
–	6.30 to 7.30	5.30 to 6.00	Cc1c(O)cccc1-c1c(N)c(C(N)=O)nc2ncccc12 [Compound 237]
5.30 to 6.00	6.00 to 6.30	–	Cc1ccc(O)c(C)c1-c1c(N)c(C(N)=O)nc2cccnc12 (single isomer, unassigned) [Compound 10, (M)-3-amino-4-(3-hydroxy-2,6-dimethylphenyl)-1,5-naphthyridine-2-carboxamide]
≤ 5.30	≤ 5.30	–	Cc1c(O)cccc1-c1c(N)c(C(N)=O)cc2nc(C)c(=O)n(C)c12 (atropisomer, axis not shown) [Compound 170]
–	> 7.30	6.30 to 7.30	CCOc1ccc2nc(C(N)=O)c(N)c(-c3cccc(O)c3C)c2n1 [Compound 154]
6.00 to 6.30	> 7.30	–	Cc1c(F)cncc1C1=c2ncccc2=NC(C(N)=O)C1N (stereo not shown) [Compound 226]
≤ 5.30	5.30 to 6.00	–	NC(=O)c1cc2nccnc2c(-c2c(Cl)ccc3[nH]ncc23)c1N (atropisomer, axis not shown) [Compound 247]
–	5.30 to 6.00	≤ 5.30	Cc1c(C#N)cncc1-c1c(N)c(C(N)=O)nc2cccnc12 [Compound 317]
6.30 to 7.30	> 7.30	–	Cc1ccc(-c2c(N)c(C(N)=O)nc3cccnc23)c(C)c1O (atropisomer, axis not shown) [Compound 288]
–	6.30 to 7.30	≤ 5.30	NC(=O)c1cc2nccnc2c(-c2cncc(O)c2)c1N [Compound 145]
–	6.30 to 7.30	6.00 to 6.30	Cc1c(O)cncc1-c1c(N)c(C(N)=O)nc2cccnc12 [Compound 155]
≤ 5.30	5.30 to 6.00	–	Cc1c(O)cccc1-c1c(N)c(C(N)=O)cc2ncccc12 (atropisomer, axis not shown; (P)) [Compound 69, (P)-6-amino-5-(3-hydroxy-2-methylphenyl)quinoline-7-carboxamide]
–	> 7.30	6.00 to 6.30	Cc1ccc(O)c(C)c1-c1c(N)c(C(N)=O)cc2nc(-c3cnn(C)c3)cnc12 [Compound 251]

pIC50 ([1]; 4 hours)	pIC50 [2]	pIC50 ([1]; Homo sapiens, HCC1806, 4 h)	SMILES
–	> 7.30	6.30 to 7.30	NC(=O)c1cc2nccnc2c(-c2cccc(O)c2Cl)c1N [Compound 97, 7-Amino-8-(2-chloro-3-hydroxyphenyl)quinoxaline-6-carboxamide]
5.30 to 6.00	6.30 to 7.30	–	Cc1c(O)cc(Cl)cc1-c1c(N)c(C(N)=O)nc2cccnc12 [Compound 248]
–	6.30 to 7.30	5.30 to 6.00	Cc1cccc(-c2c(N)c(C(N)=O)cc3cc(Cl)cnc23)c1C (atropisomer, axis not shown) [Compound 180]
–	> 7.30	6.30 to 7.30	Cc1c(O)cccc1-c1c(N)c(C(N)=O)cc2nccnc12 [Compound 73, 7-Amino-8-(3-hydroxy-2-methyl-phenyl)quinoxaline-6-carboxamide]
–	6.30 to 7.30	6.30 to 7.30	NC(=O)c1cc2nccnc2c(-c2cccc(O)c2F)c1N [Compound 120, 7-Amino-8-(2-fluoro-3-hydroxyphenyl)quinoxaline-6-carboxamide]
≤ 5.30	≤ 5.30	–	Cc1cnc2cc(C(N)=O)c(N)c(-c3c(C)ccc(O)c3C)c2n1 (atropisomer, axis not shown) [Compound 192]
6.00 to 6.30	6.30 to 7.30	–	Cc1cncc(C2=c3ncccc3=NC(C(N)=O)C2N)c1C (stereo not shown) [Compound 212]
5.30 to 6.00	6.30 to 7.30	–	Cc1ccc(O)c(C)c1-c1c(N)c(C(N)=O)nc2ccccc12 (atropisomer, axis not shown; (M)) [Compound 44, (M)-3-Amino-4-(3-hydroxy-2,6-dimethylphenyl)quinoline-2-carboxamide]
> 7.30	> 7.30	–	Cc1ccc(O)c(C)c1-c1c(N)c(C(N)=O)nc2nccnc12 (single isomer, unassigned) [Compound 127, (P)-7-Amino-8-(3-hydroxy-2,6-dimethylphenyl)pyrido[2,3-b]pyrazine-6-carboxamide]
–	6.30 to 7.30	–	Cc1ccc2nc(C(N)=O)c(N)c(-c3cccc(O)c3C)c2c1 (atropisomer, axis not shown) [Compound 149]
–	≤ 5.30	≤ 5.30	NC(=O)c1nc2cccnc2c(-c2cccc3occc23)c1N [Compound 250]
–	5.30 to 6.00	≤ 5.30	Cc1c(O)cccc1-c1cc(C(N)=O)cc2nccnc12 [Compound 80, 8-(3-Hydroxy-2-methylphenyl)quinoxaline-6-carboxamide]
–	> 7.30	–	Cc1c(O)cccc1-c1c(N)c(C(N)=O)nc2nccnc12 (atropisomer, axis not shown) [Compound 194]
–	≤ 5.30	–	NC(=O)c1cc2nccnc2c(-c2cc(O)ccc2Cl)c1N (atropisomer, axis not shown) [Compound 152]
–	> 7.30	–	Cc1ccc(O)c(C)c1-c1c(N)c(C(N)=O)cc2nc(C)c(C)nc12 (atropisomer, axis not shown) [Compound 141]
–	6.00 to 6.30	–	Cc1c(O)cccc1-c1c(N)c(C(N)=O)nc2nccnc12 (atropisomer, axis not shown) [Compound 195]
–	≤ 5.30	–	Cc1ccc(O)c(C)c1-c1cc(C(N)=O)cc2nccnc12 (atropisomer, axis not shown) [Compound 165]
–	≤ 5.30	–	Cc1ccc2nc(C(N)=O)c(N)c(-c3cccc(O)c3C)c2c1 (atropisomer, axis not shown) [Compound 150]
–	≤ 5.30	–	Cc1ccc(O)c(C)c1-c1c(N)c(C(N)=O)cc2nc(C)c(C)nc12 (atropisomer, axis not shown) [Compound 140]
–	6.30 to 7.30	–	NC(=O)c1cc2nccnc2c(-c2cc(O)ccc2Cl)c1N (atropisomer, axis not shown) [Compound 151]
